Active and inactive are the calls of the source. The rule behind the calls is not given here.
Legend:
K562 [1] = assay: Cytotoxicity against human K562 cells by MTT assay; assay type: functional, cell-based
HepG2 [2] = assay: Cytotoxicity against human HepG2 cells by MTT assay; assay type: functional, cell-based
HT-29 = assay: Cytotoxicity against human HT-29 cells by MTT assay; assay type: functional, cell-based
MDA-MB-231 = assay: Cytotoxicity against human MDA-MB-231 cells; assay type: functional, cell-based
[3] = Cytotoxicity against HEK293T cells; assay type: toxicity, cell-based, HEK-293T; settings: human
[4] = Cytotoxicity against HUVEC cells; assay type: toxicity, cell-based; settings: human
HCT-116 = assay: Cytotoxicity against human HCT-116 cells; assay type: functional, cell-based
K562 [5] = assay: Induction of apoptosis in human K562 cells at 2 uM after 12 hrs by annexin V-FITC and PI staining based method (reference value: 8.4%); assay type: functional
K562 [6] = assay: Induction of apoptosis in human K562 cells at 20 uM after 12 hrs by annexin V-FITC and PI staining based method (reference value: 8.4%); assay type: functional
K562 [7] = assay: Induction of apoptosis in human K562 cells at 2 uM after 24 hrs by annexin V-FITC and PI staining based method (reference value: 9%); assay type: functional
K562 [8] = assay: Induction of apoptosis in human K562 cells at 20 uM after 24 hrs by annexin V-FITC and PI staining based method (reference value: 9%); assay type: functional
K562 [9] = assay: Induction of apoptosis in human K562 cells at 2 uM after 48 hrs by annexin V-FITC and PI staining based method (reference value: 9.8%); assay type: functional
K562 [10] = assay: Induction of apoptosis in human K562 cells at 20 uM after 48 hrs by annexin V-FITC and PI staining based method (reference value: 9.8%); assay type: functional
K562 [11] = assay: Induction of apoptosis in human K562 cells assessed as appearance of apoptotic bodies at 2 to 20 uM by light microscopic analysis; assay type: functional, cell-based; settings: dose 2-20 µM, TDE = time-dependent effect
K562 [12] = assay: Induction of apoptosis in human K562 cells assessed as inhibition of cell growth at 2 to 20 uM; assay type: functional, cell-based; settings: dose 2-20 µM, time 12-72 hrs, TDE = time-dependent effect
K562 [13] = assay: Induction of apoptosis in human K562 cells assessed as inhibition of cell growth after 12 to 72 hrs; assay type: functional, cell-based; settings: dose 0.2-20 µM, time 12-72 hrs
K562 [14] = assay: Induction of cell cycle arrest in human K562 cells assessed as accumulation of cells at G1 phase at 2 uM incubated for 6 hrs by flow cytometry (reference value: 57.73%); assay type: functional
K562 [15] = assay: Induction of cell cycle arrest in human K562 cells assessed as accumulation of cells at G1 phase at 20 uM incubated for 6 hrs by flow cytometry (reference value: 57.73%); assay type: functional
K562 [16] = assay: Induction of cell cycle arrest in human K562 cells assessed as accumulation of cells at G2 phase at 2 uM incubated for 6 hrs by flow cytometry (reference value: 13.40%); assay type: functional
K562 [17] = assay: Induction of cell cycle arrest in human K562 cells assessed as accumulation of cells at G2 phase at 20 uM incubated for 6 hrs by flow cytometry (reference value: 13.40%); assay type: functional
K562 [18] = assay: Induction of cell cycle arrest in human K562 cells assessed as accumulation of cells at S phase at 2 uM incubated for 6 hrs by flow cytometry (reference value: 28.87%); assay type: functional
K562 [19] = assay: Induction of cell cycle arrest in human K562 cells assessed as accumulation of cells at S phase at 20 uM incubated for 6 hrs by flow cytometry (reference value: 28.87%); assay type: functional
K562 [20] = assay: Induction of cell cycle arrest in human K562 cells assessed as accumulation of cells at G1 phase at 2 uM incubated for 12 hrs by flow cytometry (reference value: 71.17%); assay type: functional
K562 [21] = assay: Induction of cell cycle arrest in human K562 cells assessed as accumulation of cells at G1 phase at 20 uM incubated for 12 hrs by flow cytometry (reference value: 71.17%); assay type: functional
K562 [22] = assay: Induction of cell cycle arrest in human K562 cells assessed as accumulation of cells at G2 phase at 2 uM incubated for 12 hrs by flow cytometry (reference value: 11.93%); assay type: functional
K562 [23] = assay: Induction of cell cycle arrest in human K562 cells assessed as accumulation of cells at G2 phase at 20 uM incubated for 12 hrs by flow cytometry (reference value: 11.93%); assay type: functional
K562 [24] = assay: Induction of cell cycle arrest in human K562 cells assessed as accumulation of cells at S phase at 2 uM incubated for 12 hrs by flow cytometry (reference value: 16.9%); assay type: functional
K562 [25] = assay: Induction of cell cycle arrest in human K562 cells assessed as accumulation of cells at S phase at 20 uM incubated for 12 hrs by flow cytometry (reference value: 16.9%); assay type: functional
K562 [26] = assay: Induction of cell cycle arrest in human K562 cells assessed as accumulation of cells at G1 phase at 2 uM incubated for 24 hrs by flow cytometry (reference value: 82.22%); assay type: functional
K562 [27] = assay: Induction of cell cycle arrest in human K562 cells assessed as accumulation of cells at G1 phase at 20 uM incubated for 24 hrs by flow cytometry (reference value: 82.22%); assay type: functional
K562 [28] = assay: Induction of cell cycle arrest in human K562 cells assessed as accumulation of cells at G2 phase at 2 uM incubated for 24 hrs by flow cytometry (reference value: 0.27%); assay type: functional
K562 [29] = assay: Induction of cell cycle arrest in human K562 cells assessed as accumulation of cells at G2 phase at 20 uM incubated for 24 hrs by flow cytometry (reference value: 0.27%); assay type: functional
K562 [30] = assay: Induction of cell cycle arrest in human K562 cells assessed as accumulation of cells at S phase at 2 uM incubated for 24 hrs by flow cytometry (reference value: 17.51%); assay type: functional
K562 [31] = assay: Induction of cell cycle arrest in human K562 cells assessed as accumulation of cells at S phase at 20 uM incubated for 24 hrs by flow cytometry (reference value: 17.51%); assay type: functional
HepG2 [32] = assay: Inhibition of cell migration human HepG2 cells assessed as migration distance at 0.3 uM incubated for 12 hrs by wound healing assay (reference value: 566.76 micrometer); assay type: functional
HepG2 [33] = assay: Inhibition of cell migration human HepG2 cells assessed as migration distance at 1 uM incubated for 12 hrs by wound healing assay (reference value: 566.76 micrometer); assay type: functional
HepG2 [34] = assay: Inhibition of cell migration human HepG2 cells assessed as migration distance at 3 uM incubated for 12 hrs by wound healing assay (reference value: 566.76 micrometer); assay type: functional
HepG2 [35] = assay: Inhibition of cell migration human HepG2 cells assessed as migration distance at 0.3 uM incubated for 24 hrs by wound healing assay (reference value: 424.41 micrometer); assay type: functional
HepG2 [36] = assay: Inhibition of cell migration human HepG2 cells assessed as migration distance at 1 uM incubated for 24 hrs by wound healing assay (reference value: 424.41 micrometer); assay type: functional
HepG2 [37] = assay: Inhibition of cell migration human HepG2 cells assessed as migration distance at 3 uM incubated for 24 hrs by wound healing assay (reference value: 424.41 micrometer); assay type: functional
HepG2 [38] = assay: Inhibition of cell migration human HepG2 cells assessed as migration distance at 0.3 uM incubated for 36 hrs by wound healing assay (reference value: 243.56 micrometer); assay type: functional
HepG2 [39] = assay: Inhibition of cell migration human HepG2 cells assessed as migration distance at 1 uM incubated for 36 hrs by wound healing assay (reference value: 243.56 micrometer); assay type: functional
HepG2 [40] = assay: Inhibition of cell migration human HepG2 cells assessed as migration distance at 3 uM incubated for 36 hrs by wound healing assay (reference value: 243.56 micrometer); assay type: functional
HepG2 [41] = assay: Inhibition of cell migration human HepG2 cells assessed as migration distance at 0.3 uM incubated for 48 hrs by wound healing assay (reference value: 0 micrometer); assay type: functional
HepG2 [42] = assay: Inhibition of cell migration human HepG2 cells assessed as migration distance at 1 uM incubated for 48 hrs by wound healing assay (reference value: 0 micrometer); assay type: functional
HepG2 [43] = assay: Inhibition of cell migration human HepG2 cells assessed as migration distance at 3 uM incubated for 48 hrs by wound healing assay (reference value: 0 micrometer); assay type: functional
HepG2 [44] = assay: Inhibition of cell migration human HepG2 cells at 0.3 to 3 uM incubated for 48 hrs by Transwell assay; assay type: functional, cell-based; settings: dose 0.3-3 µM

SMILES: COc1cc(OC)c(-c2ccc(C)cc2)cc1C(=O)/C=C/c1ccccc1
- IC50 (K562 [1]): 2.59 µM
- IC50 (HepG2 [2]): > 10 µM
- IC50 (HT-29): 9.29 µM

SMILES: COc1cc(OC)c(-c2ccc(C(F)(F)F)cc2)cc1C(=O)/C=C/c1ccccc1
- IC50 (K562 [1]): 8.7 µM
- IC50 (HepG2 [2]): > 10 µM
- IC50 (HT-29): > 10 µM

SMILES: CC[C@@]1(O)C(=O)OCc2c1cc1n(c2=O)Cc2cc3ccccc3nc2-1 [CAMPTOTHECIN]
- IC50 (K562 [1]): 0.04 µM
- IC50 (HepG2 [2]): 0.02 µM
- IC50 (HT-29): 0.07 µM
- IC50 (MDA-MB-231): > 100 µM
- IC50 [3]: 0.03 µM
- IC50 [4]: 0.06 µM

SMILES: COc1cc(OC)c(-c2ccc(C#N)cc2)cc1C(=O)/C=C/c1ccccc1
- IC50 (K562 [1]): > 10 µM
- IC50 (HepG2 [2]): > 10 µM
- IC50 (HT-29): > 10 µM

SMILES: COc1cc(OC)c(-c2ccc(OC(C)=O)cc2)cc1C(=O)/C=C/c1ccccc1
- IC50 (K562 [1]): > 10 µM
- IC50 (HepG2 [2]): > 10 µM
- IC50 (HT-29): > 10 µM

SMILES: COc1cc(OC)c(-c2ccccc2)cc1C(=O)/C=C/c1ccccc1
- IC50 (K562 [1]): 3.83 µM
- IC50 (HepG2 [2]): > 10 µM
- IC50 (HT-29): 9.17 µM

SMILES: COc1cc(OC)c(-c2ccc(F)cc2)cc1C(=O)/C=C/c1ccccc1
- IC50 (K562 [1]): 1.97 µM
- IC50 (HepG2 [2]): 2.23 µM
- IC50 (HT-29): 7.69 µM
- IC50 (HCT-116): 5.17 µM
- IC50 (MDA-MB-231): 10.7 µM
- IC50 [3]: 5.19 µM
- IC50 [4]: 19.7 µM
- Activity (K562 [5]): 8.1%
- Activity (K562 [6]): 11.9%
- Activity (K562 [7]): 12%
- Activity (K562 [8]): 19.8%
- Activity (K562 [9]): 32%
- Activity (K562 [10]): 62.6%
- Activity (K562 [11]): Tde
- Activity (K562 [12]): Tde
- Activity (K562 [13]): Dose-Dependent Effect
- Activity (K562 [14]): 58.77%
- Activity (K562 [15]): 60.44%
- Activity (K562 [16]): 11.61%
- Activity (K562 [17]): 9.25%
- Activity (K562 [18]): 29.62%
- Activity (K562 [19]): 30.33%
- Activity (K562 [20]): 58.31%
- Activity (K562 [21]): 52.57%
- Activity (K562 [22]): 12.29%
- Activity (K562 [23]): 10.88%
- Activity (K562 [24]): 29.39%
- Activity (K562 [25]): 36.55%
- Activity (K562 [26]): 54.29%
- Activity (K562 [27]): 54.29%
- Activity (K562 [28]): 7.97%
- Activity (K562 [29]): 1.33%
- Activity (K562 [30]): 37.74%
- Activity (K562 [31]): 44.38%
- Activity (HepG2 [32]): 532.4 um
- Activity (HepG2 [33]): 551.11 um
- Activity (HepG2 [34]): 534.71 um
- Activity (HepG2 [35]): 438 um
- Activity (HepG2 [36]): 486.95 um
- Activity (HepG2 [37]): 488.94 um
- Activity (HepG2 [38]): 294.54 um
- Activity (HepG2 [39]): 401.52 um
- Activity (HepG2 [40]): 423.28 um
- Activity (HepG2 [41]): 245.7 um
- Activity (HepG2 [42]): 301.44 um
- Activity (HepG2 [43]): 337.11 um
- inhibition (HepG2 [44]): Active

SMILES: COc1cc(OC)c(-c2ccc(-c3ccco3)cc2)cc1C(=O)/C=C/c1ccccc1
- IC50 (K562 [1]): 4.69 µM
- IC50 (HepG2 [2]): 5.91 µM
- IC50 (HT-29): 6.17 µM

SMILES: COc1ccc(-c2cc(C(=O)/C=C/c3ccccc3)c(OC)cc2OC)cc1
- IC50 (K562 [1]): 7.26 µM
- IC50 (HepG2 [2]): > 10 µM
- IC50 (HT-29): > 10 µM

Source: ChEMBL document CHEMBL5257062, “Synthesis, in vitro cytotoxicity evaluation and mechanism of 5' monosubstituted chalcone derivatives as antitumor agents” (Bioorg Med Chem Lett, 2023)
